Data on 33 compounds can be found in patent publication US9169199B2, “Cycloalkyl guanidine F1F0-ATPase inhibitors and therapeutic uses thereof” (Lycera Corporation, priority 2010, dated 2015).

One assay has as its system Ramos cells. Nature of the assay: Cytotoxicity in Ramos cells. Conditions: Homo sapiens, read-out: Ramos cell EC50. It counts as cell-based. The protocol:
(§1) Compounds in Example 4 above were tested for activity against F1F0-ATPase by measuring ATP synthesis. In addition, the compounds were assessed for cytotoxicity in Ramos cells. Inhibition of ATP synthesis by the F1F0-ATPase and cytotoxicity in Ramos cells were measured according to the procedures described in K. M. Johnson et al. Chemistry & Biology 2005, 12, 485-496.

A further assay has as its target T1, F1F0-ATPase (Bos taurus, UniProt P13621).
T1 construct: from tissue
Nature of the assay: Inhibition of ATP synthesis by the F1F0-ATPase. It counts as biochemical. The protocol:
as §1

Consider `CCOC(=O)N[C@H]1CC[C@H](N/C(=N\C(=O)c2ccc(F)c(F)c2)NCc2cccc(C(F)(F)F)c2)CC1` [Compound 51], for which the EC50 with Ramos cells is below 10 µM. The compound further came in with an IC50 at F1F0-ATPase below 10 µM.

Consider `COc1ccc(C(=O)/N=C(/Nc2cc(F)cc(Cl)c2)NC2CCC(NC(=O)c3ccccc3)CC2)cc1` (stereo not drawn) [Compound 154], for which the EC50 in the assay on Ramos cells was below 10 µM. On F1F0-ATPase, this compound gave an IC50 below 10 µM.

On to `COc1cccc(C(=O)/N=C(/Nc2cc(F)cc(Cl)c2)NC2CCC(NC(=O)c3ccccc3)CC2)c1` (stereo not drawn) [Compound 157], for which, in the assay with Ramos cells, the EC50 is below 10 µM. At F1F0-ATPase, the IC50 was below 10 µM.

Consider `O=C(/N=C(/Nc1cccc(C(F)(F)F)c1)N[C@H]1CC[C@H](Nc2ncccn2)CC1)c1ccc(Cl)cc1` [Compound 119], for which the EC50 in the assay on Ramos cells was below 10 µM. On F1F0-ATPase, this compound returned an IC50 below 10 µM.

For `O=C(/N=C(/Nc1cccc(Cl)c1F)N[C@H]1CC[C@H](O)CC1)c1ccc(C(F)(F)F)cc1` [Compound 69], the EC50 with Ramos cells is below 10 µM. Further, at F1F0-ATPase, the IC50 is below 10 µM.

In the case of `O=C(/N=C(/NCc1ccc(F)cc1F)N[C@H]1CC[C@H](O)CC1)c1ccc(F)c(F)c1` [Compound 41], the EC50 in the assay with Ramos cells was above 10 µM. In addition, the IC50 against F1F0-ATPase was above 10 µM.

For the compound `Cc1ccc(C(=O)/N=C(/Nc2cc(F)cc(Cl)c2)NC2CCC(NC(=O)c3ccccc3)CC2)cc1` (stereo not drawn) [Compound 148], in the assay with Ramos cells, the EC50 is below 10 µM. The same compound yielded an IC50 against F1F0-ATPase below 10 µM.

Take `O=C(/N=C(/Nc1cc(F)cc(Cl)c1)N[C@H]1CC[C@H](NC(=O)N2CCOCC2)CC1)c1ccc(F)c(F)c1` [Compound 136]: in the assay on Ramos cells, the EC50 was below 10 µM. Moreover, the IC50 on F1F0-ATPase is below 10 µM.

In the case of `O=C(/N=C(\NCc1ccccc1C(F)(F)F)N[C@H]1CC[C@H](O)CC1)c1ccc(F)c(F)c1` [Compound 16], the EC50 with Ramos cells is below 10 µM. Further, the IC50 against F1F0-ATPase was above 10 µM.

Regarding `CCOC(=O)N[C@H]1CC[C@H](N/C(=N/C(=O)c2ccc(F)c(F)c2)Nc2cccc(Cl)c2)CC1` [Compound 19], in the assay with Ramos cells, the EC50 is below 10 µM. Also, the IC50 against F1F0-ATPase is below 10 µM.

With `O=C(/N=C(/NCc1ccccc1F)N[C@H]1CC[C@H](O)CC1)c1ccc(F)c(F)c1` [Compound 35], in the assay on Ramos cells, the EC50 was above 10 µM. The compound also showed an IC50 at F1F0-ATPase above 10 µM.

With `O=C(/N=C(/NCc1ccc(F)c(Cl)c1)N[C@H]1CC[C@H](O)CC1)c1ccc(F)c(F)c1` [Compound 44], in the assay with Ramos cells, the EC50 is below 10 µM. For the same compound, the IC50 against F1F0-ATPase is above 10 µM.

Regarding `CCOC(=O)N[C@H]1CC[C@H](N/C(=N\C(=O)c2ccc(F)c(F)c2)NCc2ccc(F)cc2Cl)CC1` [Compound 60], the EC50 in the assay with Ramos cells is below 10 µM. On F1F0-ATPase, this compound showed an IC50 below 10 µM.

Regarding `CC(C)(C)CN/C(=N/C(=O)c1ccc(F)c(F)c1)N[C@H]1CC[C@H](Nc2ncccn2)CC1` [Compound 138], the EC50 in the assay with Ramos cells was below 10 µM. The same compound showed an IC50 against F1F0-ATPase below 10 µM.

Consider `CCOC(=O)NC1CCC(N/C(=N\C(=O)c2ccc(F)c(S(C)(=O)=O)c2)NCc2ccc(F)cc2Cl)CC1` (stereo not drawn) [Compound 145], for which the EC50 in the assay with Ramos cells was above 10 µM. The same compound showed an IC50 against F1F0-ATPase above 10 µM.

As for `CCOC(=O)N[C@H]1CC[C@H](N/C(=N\C(=O)c2ccc(F)c(F)c2)NCc2cccc(F)c2F)CC1` [Compound 57], the EC50 in the assay with Ramos cells was below 10 µM. This compound also displayed an IC50 at F1F0-ATPase below 10 µM.

Consider `CC(C)(C)OC(=O)N[C@H]1CC[C@H](N/C(=N\C(=O)c2ccc(F)c(F)c2)Nc2cccc(Cl)c2)CC1` [Compound 78], for which the EC50 in the assay on Ramos cells is below 10 µM. Moreover, at F1F0-ATPase, the IC50 is below 10 µM.

`CC(=O)N[C@H]1CC[C@H](N/C(=N\C(=O)c2ccc(F)c(F)c2)Nc2cc(F)cc(Cl)c2)CC1` [Compound 100]: the EC50 in the assay on Ramos cells was below 10 µM. This compound displayed an IC50 against F1F0-ATPase below 10 µM.

Turning to `O=C(/N=C(/NCc1ccc(Cl)cc1F)N[C@H]1CC[C@H](Nc2ncccn2)CC1)c1ccc(F)c(F)c1` [Compound 72], the EC50 in the assay on Ramos cells is below 10 µM. The same compound registered an IC50 on F1F0-ATPase below 10 µM.

Turning to `CCOC(=O)NC1CCC(N/C(=N\C(=O)c2ccc(C)cc2)Nc2cc(F)cc(Cl)c2)CC1` (stereo not drawn) [Compound 158], the EC50 in the assay with Ramos cells is below 10 µM. For the same compound, on F1F0-ATPase, the IC50 was below 10 µM.

Take `CCOC(=O)N[C@H]1CC[C@H](N/C(=N\C(=O)c2ccc(C(F)(F)F)cc2)NC(C)(C)C)CC1` [Compound 111]: in the assay with Ramos cells, the EC50 was above 10 µM. Moreover, the concentration for half-maximal inhibition (IC50) at F1F0-ATPase was below 10 µM.

On to `COC(=O)NC1CCC(N/C(=N\C(=O)c2ccc(C)cc2)Nc2cc(F)cc(Cl)c2)CC1` (stereo not drawn) [Compound 147], for which the EC50 in the assay on Ramos cells was below 10 µM. On F1F0-ATPase, this compound gave an IC50 below 10 µM.

Consider `CCOC(=O)N[C@H]1CC[C@H](N/C(=N\C(=O)c2ccc(F)c(F)c2)NCc2cc(F)cc(F)c2)CC1` [Compound 59], for which the EC50 with Ramos cells was below 10 µM. Also, on F1F0-ATPase, the IC50 was below 10 µM.

In the case of `O=C(/N=C(/NCc1cccc(C(F)(F)F)c1)N[C@H]1CC[C@H](O)CC1)c1ccc(F)c(F)c1` [Compound 33], the EC50 in the assay on Ramos cells is below 10 µM. This compound also displayed an IC50 at F1F0-ATPase above 10 µM.

With `O=C(/N=C(/NCc1ccc(F)cc1Cl)N[C@H]1CC[C@H](O)CC1)c1ccc(F)c(F)c1` [Compound 43], the EC50 in the assay on Ramos cells was above 10 µM. Further, the IC50 at F1F0-ATPase is above 10 µM.

On to `COC(=O)N[C@H]1CC[C@H](N/C(=N/C(=O)c2ccc(F)c(F)c2)Nc2cccc(C(F)(F)F)c2)CC1` [Compound 15], for which the EC50 in the assay on Ramos cells is below 10 µM. Further, the IC50 against F1F0-ATPase was below 10 µM.

Regarding `O=C(/N=C(/Nc1cc(F)cc(Cl)c1)NC1CCC(NC(=O)c2ccccc2)CC1)c1ccc(Cl)cc1` (stereo not drawn) [Compound 164], in the assay on Ramos cells, the EC50 was below 10 µM. On F1F0-ATPase, this compound displayed an IC50 below 10 µM.

Take `O=C(/N=C(/Nc1cc(F)cc(Cl)c1)N[C@H]1CC[C@H](Nc2ncccn2)CC1)c1ccc(F)c(F)c1` [Compound 9]: the EC50 in the assay on Ramos cells is below 10 µM. The compound further showed an IC50 against F1F0-ATPase below 10 µM.

Regarding `O=C(/N=C(/Nc1cccc(Cl)c1)N[C@H]1CC[C@H](O)CC1)c1ccc(Cl)cc1` [Compound 27], the EC50 in the assay on Ramos cells was below 10 µM. At F1F0-ATPase, this compound registered an IC50 above 10 µM.

Regarding `Cc1cc(C(=O)N[C@H]2CC[C@H](N/C(=N\C(=O)c3ccc(F)c(F)c3)Nc3cccc(Cl)c3)CC2)ccn1` [Compound 132], in the assay with Ramos cells, the EC50 was below 10 µM. The same compound had an IC50 against F1F0-ATPase below 10 µM.

On to `CC1(N/C(=N/C(=O)c2ccc(Cl)cc2)N[C@H]2CC[C@H](Nc3ncccn3)CC2)CCCC1` [Compound 122], for which, in the assay on Ramos cells, the EC50 was below 10 µM. Besides, the IC50 at F1F0-ATPase was below 10 µM.

Consider `CCOC(=O)NC1CCC(N/C(=N\C(=O)c2ccc(F)c(S(C)(=O)=O)c2)Nc2cc(F)cc(Cl)c2)CC1` (stereo not drawn) [Compound 146], for which the EC50 in the assay with Ramos cells was above 10 µM. On F1F0-ATPase, this compound showed an IC50 above 10 µM.

Regarding `CCOC(=O)N[C@@H]1CCC[C@@H](N/C(=N\C(=O)c2ccc(F)c(F)c2)Nc2cc(F)cc(Cl)c2)C1` [Compound 126], the EC50 in the assay on Ramos cells was below 10 µM. At F1F0-ATPase, this compound came in with an IC50 below 10 µM.

For orientation: EC50 means the concentration at which the effect is half-maximal. As usually defined, the IC50 is the point on the concentration scale where inhibition reaches its midpoint. A high value points to a need for much substance.
